In article PMC9229564 (Viruses, 2022):
“Also recorded” adds a separate entry of the source. Like-named read-outs stand apart in the source and are kept apart here.

Columns and labels:
CHIKV [1] = experiment: plaque assay of infectious virus release (supernatants on Vero E6 cells); type: cell-based, Chikungunya virus (clone 181/25); settings: 25 µM, supernatant 24 h post-infection, plaques on Vero E6 over 72 h
CHIKV [2] = experiment: CHIKV infection of HeLa cells, immunofluorescence high-content imaging; type: cell-based, Chikungunya virus (clone 181/25); settings: for inhibition of CHIKV infection (nsP3 expression), screen: 20 µM, cutoff at least 50% inhibition with at least 75% cell viability; for EC50: HeLa cells, CHIKV infection, increasing concentration of inhibitor
human SK2 = target: T1, human SK2 (Homo sapiens, UniProt Q9NRA0); experiment: SK2 inhibition (Ki); type: biochemical
T1 sequence (Q9NRA0 1-654): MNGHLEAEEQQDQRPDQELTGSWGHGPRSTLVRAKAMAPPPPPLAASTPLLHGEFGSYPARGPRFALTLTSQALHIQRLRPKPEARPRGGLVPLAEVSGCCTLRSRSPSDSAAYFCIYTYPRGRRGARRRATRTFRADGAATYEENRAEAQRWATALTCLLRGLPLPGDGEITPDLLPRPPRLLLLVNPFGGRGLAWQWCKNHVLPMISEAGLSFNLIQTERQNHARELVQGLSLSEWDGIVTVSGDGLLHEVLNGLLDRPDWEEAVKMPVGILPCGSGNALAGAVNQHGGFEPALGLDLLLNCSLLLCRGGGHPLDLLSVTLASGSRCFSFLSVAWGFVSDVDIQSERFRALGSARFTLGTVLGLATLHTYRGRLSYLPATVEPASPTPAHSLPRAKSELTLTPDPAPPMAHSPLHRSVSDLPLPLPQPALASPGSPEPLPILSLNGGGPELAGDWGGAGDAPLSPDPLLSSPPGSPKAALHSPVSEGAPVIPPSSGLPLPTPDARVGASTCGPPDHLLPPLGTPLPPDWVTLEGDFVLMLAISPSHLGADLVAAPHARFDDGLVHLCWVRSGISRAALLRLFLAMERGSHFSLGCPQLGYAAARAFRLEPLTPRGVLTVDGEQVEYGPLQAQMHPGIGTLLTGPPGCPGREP

HeLa cells = experiment: virus-free cell viability assay; type: cell-based
CHIKV [3] = experiment: qRT-PCR of viral nsP1 expression in CHIKV-infected HeLa cells; type: cell-based, Chikungunya virus (clone 181/25); settings: 20 µM, 1 h pre-treatment, MOI 1, 24 h
SK1 and SK2 = system: SK1 and SK2; parameters: method as in earlier work; settings: yeast assay; more potent at SK1 than SK2; cited from earlier work
human SK1 = human SK1 (Homo sapiens, UniProt Q9NYA1); experiment: SK1 inhibition (Ki); type: biochemical
CHIKV [4] = settings: previous work; cited from earlier work
[5] = 1 h pre-treatment, HeLa, MOI = 1, 24 h

human SK1, sequence (Q9NYA1 whole entry): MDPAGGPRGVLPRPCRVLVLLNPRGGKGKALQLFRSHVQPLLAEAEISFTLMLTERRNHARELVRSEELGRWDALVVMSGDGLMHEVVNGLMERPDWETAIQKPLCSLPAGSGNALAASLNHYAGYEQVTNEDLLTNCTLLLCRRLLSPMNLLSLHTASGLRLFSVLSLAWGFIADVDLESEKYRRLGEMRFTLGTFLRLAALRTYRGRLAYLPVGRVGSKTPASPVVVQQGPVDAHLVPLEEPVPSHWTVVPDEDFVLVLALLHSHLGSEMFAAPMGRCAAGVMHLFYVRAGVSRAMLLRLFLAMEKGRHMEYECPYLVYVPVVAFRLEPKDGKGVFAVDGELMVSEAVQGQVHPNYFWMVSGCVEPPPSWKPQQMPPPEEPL

CCCCCCCCCCCCc1ccc(CN2CCCC2CO)cc1 (stereo not drawn) [SLL3071511]
plaque counts (infectious virus release) (CHIKV [1]): significantly diminished | inhibition of CHIKV infection (nsP3 expression), screen (CHIKV [2]; [5]): significantly inhibited CHIKV infection | viral glycoprotein (E2) expression (CHIKV [2]; 1 h pre-treatment, HeLa, MOI = 1, 24 h, Supplementary Figure S3): decreased | EC50 (CHIKV [2]; Chikungunya virus, HeLa): 2900 nM | EC50 (CHIKV [2]): 2910 nM | anti-CHIKV activity at higher MOI (CHIKV [2]; HeLa, MOI = 10, 24 h): retained significant anti-CHIKV activity | timing of effective inhibition of CHIKV infection (CHIKV [2]; treatment 1 h before, along with or 1 h after infection, MOI 1): highest inhibitory effect occurring when the compound is used prior to infection; also recorded: maximal inhibition occurring when SLL3071511 is added prior to infection | Ki (human SK2; read-out: SK2 Ki): 660 ± 110 nM | non-toxic concentration (HeLa cells): up to 50 µM | viral nsP1 expression (CHIKV [3]): significantly diminished

CCCCCOc1ccc2cc(-c3noc([C@@H]4[C@@H](O)CCN4C(=N)N)n3)ccc2c1 [SLC5111312]
potency at SK1 relative to SK2 (SK1 and SK2): 2 fold | Ki (human SK1): 360 ± 90 nM | inhibition of CHIKV infection (nsP3 expression), screen (CHIKV [2]; [5]): significantly inhibited CHIKV infection | EC50 (CHIKV [2]; Chikungunya virus, HeLa): 11800 nM | Ki (human SK2): 330 ± 70 nM

O=C(NCc1ccncc1)C12CC3CC(C1)CC(c1ccc(Cl)cc1)(C3)C2 [ABC294640]
timing of effective inhibition of CHIKV infection (CHIKV [4]): most effective at inhibiting CHIKV infection

CCCCCCCCCCCCc1ccc(CN(C)C2CCCC2O)cc1 (stereo not drawn) [SLL3041783]
Ki (human SK1; read-out: SK1 Ki): 2400 ± 610 nM | inhibition of CHIKV infection (nsP3 expression), screen (CHIKV [2]; [5]): significantly inhibited CHIKV infection | EC50 (CHIKV [2]; Chikungunya virus, HeLa): 3330 nM | Ki (human SK2; read-out: SK2 Ki): > 3000 nM

N=C(N)N1CCC[C@H]1Cc1nc(-c2ccc(Oc3nc(Br)cs3)cc2)no1 [SLC4091425]
Ki (human SK1; read-out: SK1 Ki): > 3000 nM | inhibition of CHIKV infection (nsP3 expression), screen (CHIKV [2]; [5]): significantly inhibited CHIKV infection | EC50 (CHIKV [2]; Chikungunya virus, HeLa): 3350 nM | Ki (human SK2; read-out: SK2 Ki): > 3000 nM
